Results published in US20090275557A1, “Novel Composition for Treatment of Diseases Related to Activated Lymphocytes” (Immune Control, Inc., priority 2008, published 2009).

Test system: bovine type 2 collagen immunized rats
Assay: Collagen-induced arthritis assay, IP injection protocol, ankle diameter
Assay type: in vivo, rat
Conditions: IP injection 10 mg/kg once per day, study days 1-3; observed on study days 2-4
Protocol: Female Lewis rats (CR) weighing between 125-200 g were immunized with bovine type 2 collagen, 2 mg/ml in a 1:1 solution of 0.01 N acetic acid and Freund's incomplete adjuvant (“FIA”). A 0.1 ml portion of the collagen solution was injected id (intradermally) at three sites on the rat. Rats were immunized with the collagen solution on days 1 and 6 of the study. […] On day 9 (study day “0”), baseline ankle diameters were measured. On days 10-15 (study days 1-6), the rats were then treated, via oral gavage, with either 1, 5, or 25 mg/kg of one of ICI-1259 or ICI-1260, prepared as described below. Ankle diameter measurements were measured on each of days 10-16.
Compounds ICI-1259, ICI-1260, ICI-1505, and ICI-1506 were administered via IP injection to treat collagent-induced arthritis in a variation of the experiments described above. Under the protocol of the IP injection experiments, animal were immunized with Bovine Type 2 collagen as previously described. […] On day 9 (study day “0”), baseline ankle diameters were measured. On days 10-12 (study days 1-3), the rats were then treated once per day, via IP injection, with one of ICI-1259, ICI-1260, ICI-1505, or ICI-1506 at 10 mg/kg. Ankle diameter in the immunized rodents was measured on each of days 10-13 as well as on day 14. […] See FIG. 18 (ICI-1259, ICI-1260, and ICI-1505) and FIG. 19 (ICI-1506).
In a separate study, using the IP injection protocol described above, ICI-1259 and 1260 were each dosed at 2 mg/kg and 0.4 mg/kg.

SMILES	reduction in ankle swelling (ankle diameter)
CN(C)CCCN1CCC(CCCN2c3ccccc3Sc3ccc(C(F)(F)F)cc32)CC1 [ICI-1505, N,N-dimethyl-3-(4-(3-(2-(trifluoromethyl)-10H-phenothiazin-10-yl)propyl)piperidin-1-yl)propan-1-amine]	statistically significant results were observed
FC(F)(F)c1ccc2c(c1)N(CCCC1CCN(CCCN3CCCCC3)CC1)c1ccccc1S2 [ICI-1506, 10-(3-(1-(3-(piperidin-1-yl)propyl)piperidin-4-yl)propyl)-2-(trifluoromethyl)-10H-phenothiazine]	statistically significant results were observed
